The source of these data is patent US6608086B2, “Dihydropyridines and new uses thereof” (Synaptic Pharmaceutical Corporation, priority 1993, dated 2003).

In one data set the target is T1, L-type calcium channel (Rattus norvegicus, UniProt P22002).
T1 construct: membrane fragments of rat cardiac muscle; from tissue; host or cells: rat cardiac muscle membranes
Briefly: Competition binding of [3H]nitrendipine to membrane fragments of rat cardiac muscle.

The next data set deals with human prostatic tissue. As to the kind of experiment: In vitro human prostate model: block of phenylephrine-induced contraction of human prostatic tissue. It counts as cell-based. The source says: The protocol for these experiments is given below.
Functional Properties of α1 Antagonists in the Human Prostate
The efficacy of α1 adrenergic antagonists for the treatment of benign prostatic hyperplasia (BPH) is related to their ability to elicit relaxation of prostate smooth muscle. An index of this efficacy can be obtained by determining the potency of al antagonists to antagonize the contraction of human prostatic tissue induced by an α1 agonist “in vitro”. Furthermore, by comparing the potency of subtype selective α1 antagonists in binding assays using human α1 receptors with their potency to inhibit agonist-induced smooth muscle contraction, it is possible to determine which of the α1 adrenergic receptor subtypes is involved in the contraction of prostate smooth muscle.
Prostatic adenomas were obtained at the time of surgery from patients with symptomatic BPH. […] The baths were maintained at 37° C. and continuously oxygenated with 5% CO2 and 95% O2. Isometric tension was measured with a Grass Instrument FT03 force transducer interfaced with a computer. Tissue strips were contracted with varying concentrations of phenylephrine after incubating for 20 minutes in the absence and presence of at least three different concentrations of antagonist. Dose-response curves for phenylephrine were constructed, and the antagonist potency (pA2) was estimated by the dose-ratio method. The concentration of some antagonists in the tissue bath was assessed by measuring the displacement of [3H]prazosin by aliquots of the bath medium, using membrane preparations of the cloned human α1C receptor. This control was necessary to account for losses of antagonist due to adsorption to the tissue bath and/or metabolism during the time the antagonists were equilibrated with the prostate tissue.

A further data set relates to canine prostate. As to the kind of experiment: In vivo dog prostate model: inhibition of phenylephrine-induced increase in urethral pressure in anesthetized dogs.

Counter-ions that a name gives are not always drawn. Like-named read-outs stand apart in the source and are kept apart here.

T1 sequence (P22002 whole entry, other chains not shown, the tested form may be a part): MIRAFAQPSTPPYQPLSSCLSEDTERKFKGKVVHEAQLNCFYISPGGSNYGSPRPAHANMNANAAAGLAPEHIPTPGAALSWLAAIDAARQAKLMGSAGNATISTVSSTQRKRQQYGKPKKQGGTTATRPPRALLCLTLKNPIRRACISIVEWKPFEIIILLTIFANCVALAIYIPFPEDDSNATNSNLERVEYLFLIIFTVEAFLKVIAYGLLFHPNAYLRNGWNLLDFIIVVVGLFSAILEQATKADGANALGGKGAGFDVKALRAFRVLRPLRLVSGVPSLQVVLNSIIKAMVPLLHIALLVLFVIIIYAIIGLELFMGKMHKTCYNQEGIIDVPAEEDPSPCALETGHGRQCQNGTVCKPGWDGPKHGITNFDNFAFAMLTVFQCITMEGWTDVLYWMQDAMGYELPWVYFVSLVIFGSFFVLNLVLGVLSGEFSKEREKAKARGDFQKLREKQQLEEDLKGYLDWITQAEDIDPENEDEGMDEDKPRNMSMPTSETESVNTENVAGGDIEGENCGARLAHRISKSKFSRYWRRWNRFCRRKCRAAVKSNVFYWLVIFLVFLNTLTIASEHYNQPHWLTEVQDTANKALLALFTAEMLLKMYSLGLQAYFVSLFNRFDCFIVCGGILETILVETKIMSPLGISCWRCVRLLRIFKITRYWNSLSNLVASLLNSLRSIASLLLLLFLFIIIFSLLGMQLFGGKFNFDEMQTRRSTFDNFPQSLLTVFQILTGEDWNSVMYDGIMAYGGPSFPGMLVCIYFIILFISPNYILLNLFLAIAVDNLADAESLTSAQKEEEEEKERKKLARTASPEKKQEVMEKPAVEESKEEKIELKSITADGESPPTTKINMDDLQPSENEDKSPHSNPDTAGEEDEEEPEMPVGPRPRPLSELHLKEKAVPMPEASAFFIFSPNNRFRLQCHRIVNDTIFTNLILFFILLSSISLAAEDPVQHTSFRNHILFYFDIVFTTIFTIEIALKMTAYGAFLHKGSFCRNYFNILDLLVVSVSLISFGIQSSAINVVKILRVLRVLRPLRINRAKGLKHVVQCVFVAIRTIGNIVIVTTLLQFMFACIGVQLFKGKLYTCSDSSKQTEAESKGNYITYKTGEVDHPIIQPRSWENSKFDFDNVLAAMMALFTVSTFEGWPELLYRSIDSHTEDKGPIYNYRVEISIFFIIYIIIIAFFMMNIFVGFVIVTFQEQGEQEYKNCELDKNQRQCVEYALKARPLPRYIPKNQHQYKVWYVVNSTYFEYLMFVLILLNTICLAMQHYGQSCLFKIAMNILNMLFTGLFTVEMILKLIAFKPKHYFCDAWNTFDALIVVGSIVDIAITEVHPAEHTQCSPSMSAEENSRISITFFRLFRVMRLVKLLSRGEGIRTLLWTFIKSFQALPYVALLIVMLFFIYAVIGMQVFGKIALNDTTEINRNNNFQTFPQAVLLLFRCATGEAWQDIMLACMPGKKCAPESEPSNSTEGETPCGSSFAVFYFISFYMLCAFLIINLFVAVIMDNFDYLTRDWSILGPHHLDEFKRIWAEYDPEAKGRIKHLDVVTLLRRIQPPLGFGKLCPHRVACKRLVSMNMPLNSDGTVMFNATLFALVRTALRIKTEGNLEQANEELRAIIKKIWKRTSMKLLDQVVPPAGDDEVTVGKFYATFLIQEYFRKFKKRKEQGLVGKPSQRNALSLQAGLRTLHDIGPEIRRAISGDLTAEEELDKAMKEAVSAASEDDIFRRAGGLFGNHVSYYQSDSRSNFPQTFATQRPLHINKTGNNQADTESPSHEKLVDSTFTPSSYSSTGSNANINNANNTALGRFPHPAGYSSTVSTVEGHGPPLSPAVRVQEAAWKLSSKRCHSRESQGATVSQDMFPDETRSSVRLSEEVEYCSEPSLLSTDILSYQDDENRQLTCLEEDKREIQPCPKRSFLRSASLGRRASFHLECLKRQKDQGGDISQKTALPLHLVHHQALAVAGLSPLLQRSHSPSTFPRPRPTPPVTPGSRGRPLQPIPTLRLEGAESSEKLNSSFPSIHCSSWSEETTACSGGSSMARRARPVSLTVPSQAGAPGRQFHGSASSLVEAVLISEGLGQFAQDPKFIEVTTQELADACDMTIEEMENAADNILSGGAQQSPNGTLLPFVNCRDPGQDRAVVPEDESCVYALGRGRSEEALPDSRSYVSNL
T1 sequence (P54290 25-944 partner limits assumed, other chains not shown): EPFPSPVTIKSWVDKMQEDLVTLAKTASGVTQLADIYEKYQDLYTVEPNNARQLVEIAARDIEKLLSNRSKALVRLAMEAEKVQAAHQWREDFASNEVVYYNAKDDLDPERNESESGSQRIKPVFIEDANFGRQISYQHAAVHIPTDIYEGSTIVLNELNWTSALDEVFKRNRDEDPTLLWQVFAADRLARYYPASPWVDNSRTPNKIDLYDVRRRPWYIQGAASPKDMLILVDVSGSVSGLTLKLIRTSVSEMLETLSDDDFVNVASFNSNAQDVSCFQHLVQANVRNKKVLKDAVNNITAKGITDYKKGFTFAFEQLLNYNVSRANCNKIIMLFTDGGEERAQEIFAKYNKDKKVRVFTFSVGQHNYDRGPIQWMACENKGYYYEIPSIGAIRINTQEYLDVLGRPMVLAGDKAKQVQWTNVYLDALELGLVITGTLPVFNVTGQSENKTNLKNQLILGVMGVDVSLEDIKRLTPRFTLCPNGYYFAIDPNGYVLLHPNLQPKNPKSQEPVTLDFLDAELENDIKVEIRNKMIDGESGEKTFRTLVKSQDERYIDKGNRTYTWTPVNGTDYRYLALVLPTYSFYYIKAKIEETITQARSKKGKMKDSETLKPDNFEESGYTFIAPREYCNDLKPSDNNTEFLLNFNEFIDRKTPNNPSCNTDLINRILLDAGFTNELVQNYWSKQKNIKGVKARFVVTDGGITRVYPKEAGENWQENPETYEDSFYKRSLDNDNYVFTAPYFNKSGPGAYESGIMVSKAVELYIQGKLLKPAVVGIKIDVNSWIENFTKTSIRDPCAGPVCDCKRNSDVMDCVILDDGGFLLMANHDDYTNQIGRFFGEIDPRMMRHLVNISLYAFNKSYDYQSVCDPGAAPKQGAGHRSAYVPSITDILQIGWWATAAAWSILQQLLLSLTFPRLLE
T1 sequence (P54290 945-1091 partner limits assumed, other chains not shown): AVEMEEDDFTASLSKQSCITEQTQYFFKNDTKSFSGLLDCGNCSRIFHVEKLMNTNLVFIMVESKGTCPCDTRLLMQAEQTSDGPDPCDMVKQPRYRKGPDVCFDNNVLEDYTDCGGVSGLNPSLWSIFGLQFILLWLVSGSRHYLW
Experimental for canine prostate: Protocol for In Vivo Evaluation of Compounds in Canine Prostate
Adult male mongrel dogs more than one year of age were chosen for the model. After induction of general anesthesia using sodium pentobarbital (25 mg/Kg i.v.), the animals were intubated and allowed to breathe spontaneously. An arterial catheter was inserted via the femoral artery to monitor blood pressure and i.v. line was inserted into the leg for fluid and drug administration. A constant saline infusion was maintained at 40 to 50 mL/h. Next, a seven cm lower abdominal incision was made one cm lateral to the penis.
The bladder, prostate and a short segment of urethra were identified and isolated, without damage to the nerves or blood vessels. A cystotomy incision was made through which the pressure catheter was inserted and positioned in the prostatic urethra. The cystotomy was not closed, but the wound edges were sutured to stop bleeding. The tip of the catheter was positioned just distal to the prostate and secured in place with an O-silk tie around the urethra. A second holding suture at the bladder neck secured the catheter in place.
Fluid, either water or saline, was pumped by a Harvard infusion pump at 0.1 mL/min through a Gould pressure transducer into the catheter. The fluid exists at a port in the catheter which is in the prostatic urethra. Occlusion of the port, by contraction of the prostate, blocks the flow and a pressure wave is created. This pressure is transmitted back through the catheter to the transducer which is attached to a Gould recorder. Squeezing the prostate gland caused an increase in urethral pressure which verified the correct position in the urethra.
The compounds were tested as follows: A dose response curve was first generated for phenylephrine alone, in doses ranging from one μg/Kg to 50 μg/Kg. The absolute rise in urethral pressure was recorded for each dose and the next dose given when the urethral pressure returned to baseline. Phenylephrine dose response curves were generated in all animals tested. Increasing doses of compounds were then given, and the phenylephrine dose response curve repeated in the prepense of each dose of the compound. No animal received more than one compound; four animals were used to test each compound. To test for tachyphylaxis, four separate dogs were challenged with repeated phenylephrine doses for six hrs, the usual length of each experiment. From the dose-effect data, the inhibition constant (Ki) and the median-effect dose (ED50) were calculated. Both the Ki and ED50 values given are calculated by using microcomputer software and an IBM-PC.

Consider `COC(=O)C1=C(C)NC(C)=C(C(=O)NCCCN2CCC(c3ccccc3)CC2)C1c1ccc([N+](=O)[O-])cc1` (racemic) [(±)-45, (±)-1,4-Dihydro-3-methoxycarbonyl-2,6-dimethyl-4-(4-nitrophenyl)-5-{N-[3-(4-phenylpiperidin-1-yl)propyl]}carboxamidopyridine hydrochloride hemihydrate], for which the Ki at L-type calcium channel ([3H]nitrendipine, rat cardiac muscle membranes, SEM and n in lines below, read-out: pKi Ca (converted)) is 7.41 µM; with canine prostate (In Vivo Dog Prostate Model, phenylephrine-induced contraction, urethral pressure), 12 nmol/kg. Moreover, on human prostatic tissue (In Vitro Human Prostate Model, phenylephrine-induced contraction), the negative logarithm of the Ki (pKi) (as a rule, the negative decadic logarithm of the Ki, by convention in mol/L) is reported as 8.07 ± 0.13.
For `CNC(=O)C1=C(C)NC(C)=C(C(=O)NCCCN2CCC(c3ccccc3)(c3ccccc3)CC2)C1c1ccc([N+](=O)[O-])cc1` (centres unmarked) [Example 38, 1,4-Dihydro-2,6-dimethyl-5-(N-methyl)carboxamido-4-(4-nitrophenyl)-3-{N-[3-(4,4-diphenylpiperidin-1-yl)propyl]}carboxamidopyridine], on L-type calcium channel (pKi Ca), the Ki is 7.08 µM. Besides, the pA2 (as a rule, the negative logarithm of the molar antagonist concentration that doubles the agonist concentration needed for the same response) with human prostatic tissue (block of phenylephrine-induced contraction of human prostate) is 8.98 ± 0.06. In addition, in the data set on canine prostate (inhibition of phenylephrine-induced increases in urethral pressure, anesthetized dogs), the “Urethral Pressure K i” value came to 8 ± 1.5 nmol/kg.
As to `COC(=O)C1(c2ccccc2)CCN(CCCNC(=O)C2=C(CCCCN)NC(C)=C(C(N)=O)C2c2ccc([N+](=O)[O-])cc2)CC1` (centres unmarked) [Example 177, 2-(4-Aminobutyl)-5-carboxamido-1,4-dihydro-3-{N-[3-(4-methoxycarbonyl-4-phenylpiperidin-1-yl)propyl]}carboxamido-6-methyl-4-(4-nitrophenyl)pyridine], the melting point – broadly, the temperature of the solid-liquid transition – fell in the range of 81 to 84 °C. Also, the Ki at L-type calcium channel (PKi Ca) was 93.3 µM.
Take `CCNC(=O)C1=C(CC)NC(CC)=C(C(=O)NCCCN2CCC(C(=O)OCC)(c3ccccc3)CC2)C1c1ccc([N+](=O)[O-])cc1` (centres unmarked) [Example 182, 2,6-Diethyl-1,4-dihydro-3-{N-[3-(4-ethoxycarbonyl-4-phenylpiperidin-1-yl)propyl]}carboxamido-5-(N-ethyl)carboxamido-4(4-nitrophenyl)pyridine]: the melting point was 103 to 104 °C. In addition, at L-type calcium channel (PKi Ca), the Ki is 355 µM.
Consider `CCOC(=O)C1(c2ccccc2)CCN(CCCNC(=O)C2=C(COCCN)NC(CC)=C(C(=O)OC)C2c2ccc([N+](=O)[O-])cc2)CC1` (centres unmarked) [Example 197, 2-[(2-Aminoethoxy)methyl]-3-{N-[3-(4-ethoxycarbonyl-4-phenylpiperidin-1-yl)propyl]}carboxamido-1,4-dihydro-6-ethyl-5-methoxycarbonyl-4-(4-nitrophenyl) pyridine], for which the melting point was in the range of 45 to 47 °C. Also, the Ki at L-type calcium channel (PKi Ca) is 6.31 µM.
Molecule `CC1=C(C(N)=O)C(c2ccc([N+](=O)[O-])cc2)C(C(=O)NCCCN2CCC(C(=O)O)(c3ccccc3)CC2)=C(C)N1` (centres unmarked) [Example 210, 5-Carboxamido-3-{N-[3-(4-carboxy-4-phenylpiperidin-1-yl)propyl]}carboxamido-1,4-dihydro-2,6-dimethyl-4-(4-nitrophenyl)pyridine] returned a melting point of 208 to 210 °C. Besides, on L-type calcium channel (PKi Ca), the Ki is 0.933 µM.
Take `CCC1=C(C(=O)NC)C(c2ccc([N+](=O)[O-])cc2)C(C(=O)NCCCN2CCC(c3ccccc3)(c3ccccc3)CC2)=C(COCCN)N1` (centres unmarked) [Example 225, 2-((2-Aminoethyl)oxy)methyl-6-ethyl-1,4-dihydro-5-N-methylcarboxamido-4-(4-nitro)phenyl-3-(3-(N-(4,4-diphenylpiperidin-1-yl)propyl))carboxamidopyridine]: the melting point was 115 °C (dec.). For the same molecule, the Ki on L-type calcium channel (PKi Ca) was 2.57 µM.
In the case of `CCC1=C(C(=O)NC)C(c2ccc([N+](=O)[O-])cc2)C(C(=O)NCCCN2CCC(C(=O)OC)(c3ccccc3)CC2)=C(COCCN)N1` (centres unmarked) [Example 229, 2-((2-Aminoethyl)oxy)methyl-6-ethyl-1,4-dihydro-3-(N-(3-(4-methoxycarbonyl-4-phenylpiperidin-1-yl)propyl))carbo xamido-5-N-methylcarboxamido-4-(4-nitro)phenylpyridine], the melting point was 95 °C (dec.). For the same molecule, the Ki on L-type calcium channel ([3H]nitrendipine, rat cardiac muscle membranes, mean, read-out: PKi Ca (converted)) was 100 µM.
With `CCNC(=O)C1=C(CC)NC(COCCN)=C(C(=O)NCCCN2CCC(C(=O)OC)(c3ccccc3)CC2)C1c1ccc([N+](=O)[O-])cc1` (centres unmarked) [Example 233, 2-((2-Aminoethyl)oxy)methyl-6-ethyl-5-N-ethylcarboxamido-1,4-dihydro-3-(N-(3-(4-methoxycarbonyl-4-phenylpiperidin-1-yl)propyl))carboxamido-4-(4-nitro)phenylpyridine], the melting point is 112 °C (dec.). The Ki at L-type calcium channel (PKi Ca) was 0.257 µM.
The matching figures for `CCC1=C(C(=O)OC)C(c2ccc([N+](=O)[O-])cc2)C(C(=O)NCCCN2CCC(C(=O)OC)(c3ccccc3)CC2)=C(COCCN)N1` (centres unmarked) [Example 235, 2-((2-Aminoethyl)oxy)methyl-6-ethyl-1,4-dihydro-5-methoxycarbonyl-3-(N-(3-(4-methoxycarbonyl-4-phenylpiperidin-1-yl)propyl))carboxamido-4-(4-nitro)phenylpyridine]: 140 °C (dec.) and 166 µM.
The matching figures for `COC(=O)C1=C(C)NC(C)=C(C(=O)NCCCN2CCC(c3ccccc3)(c3ccccc3)CC2)C1c1cccc([N+](=O)[O-])c1` (centres unmarked) [Example 249, 1,4-Dihydro-3-methoxycarbonyl-2,6-dimethyl-4-(3-nitrophenyl)-5-(N-(3-(4,4-diphenylpiperidin-1-yl)propyl)carboxamido)-pyridine]: 192 to 193 °C and 0.0309 µM.
The molecule `COC(=O)C1=C(C)NC(C)=C(C(=O)NCCCN2CCC(c3ccccc3)CC2)C1c1ccc2c(c1)OCO2` (centres unmarked) [Example 250] returned a melting point of 161 to 165 °C. For the same molecule, at L-type calcium channel ([3H]nitrendipine, rat cardiac muscle membranes, L-type calcium channel, read-out: PKi Ca (converted)), the Ki is 13.2 µM.
